Measured values from US20100286389A1, “STABLE CRYSTAL OF BETA-LACTAM COMPOUND” (priority 2007, published 2010).
One block for each molecule: values may come before it.

Assays:
[1] = system: Gram positive bacteria, especially methicillin resistant staphylococcus and methicillin resistant coagulase negative staphylococcus; details: cited from earlier work
[2] = Stability test on Form I crystal under humidity condition (Test 4); format: physicochemical; details: usual handling condition
Source text: Evaluation was based on change of area percentage of Compound A with HPLC (High Performance Liquid Chromatography) under following conditions:
(§1) Column: SUMIPAX ODS-A212 (silica gel binding with octadecyl group, particle size 5 μm; 6.0 mm φ×15 cm), mobile phase A solution: a mixture of 0.005 mol/L phosphate buffer (pH7.0) and acetonitrile (300:23(v/v)), mobile phase B solution: acetonitrile, solvent for sample: water and acetonitrile (90:10(v/v)), wavelength: 220 nm, column temperature: constant temperature around 25° C., flow rate: 1.0 mL/min, injection amount: 10 μL, and gradient condition: […]
In order to confirm the stability on Form I crystal under humidity condition was conducted following test. The test was carried out by using moisture-absorbed Form I crystal, which was prepared by storing Form I crystal obtained by the method of Example 2 under the atmosphere with 53% RH in a whole day in order to make it absorb moisture.

[3] = Stability test (Test 3), closed vial, HPLC area percentage of Compound A; format: physicochemical
Experimental: Stability test on each test sample was conducted under following storage conditions.
as §1

SMILES: C[C@H]1C=C(c2csc(SC3=C(C(=O)O)N4C(=O)[C@H]([C@@H](C)O)[C@H]4[C@H]3C)n2)CN1 [Compound A, (4R,5S,6S)-6-[(1R)-1-hydroxyethyl]-4-methyl-3-({4-[(5S)-5-methyl-2,5-dihydro-1H-pyrrol-3-yl]-1,3-thiazol-2-yl}thio)-7-oxo-1-azabicyclo[3.2.0]hept-2-ene-2-carboxylic acid]
Activity against Gram positive bacteria [1]: excellent activity

Moisture absorption in words [2]: absorbs a little moisture
Stability in words [2]: excellent
Compound A (HPLC surface area %) ([3]; closed vial at 55° C., 2 weeks): 99.60%
Difference from initial value (HPLC surface area %) ([3]; closed vial at 55° C., 2 weeks): −0.17%
Compound A (HPLC surface area %) ([3]; closed vial at 55° C., 4 weeks): 99.60%
Difference from initial value (HPLC surface area %) ([3]; closed vial at 55° C., 4 weeks): −0.17%
Compound A (HPLC surface area %) ([3]; closed vial at 55° C., Initial): 99.77%
Difference from initial value (HPLC surface area %) ([3]; closed vial at 55° C., Initial): 0%
Stability in words ([3]; normal / usual storage condition, conclusion from the stability tests): extremely stable
SMILES: C[C@H]1C=C(c2csc(SC3=C(C(=O)O)N4C(=O)[C@H]([C@@H](C)O)[C@H]4[C@H]3C)n2)CN1 [Form I crystal, (4R,5S,6S)-6-[(1R)-1-hydroxyethyl]-4-methyl-3-({4-[(5S)-5-methyl-2,5-dihydro-1H-pyrrol-3-yl]-1,3-thiazol-2-yl}thio)-7-oxo-1-azabicyclo[3.2.0]hept-2-ene-2-carboxylic acid]

Compound A (HPLC surface area %) ([3]; closed vial at 50° C., 1 week): 73.40%
Compound A (HPLC surface area %) ([3]; closed vial at 50° C., 3 weeks): 54.53%
Compound A (HPLC surface area %) ([3]; closed vial at 50° C., 6 weeks): 39.93%
Compound A (HPLC surface area %) ([3]; closed vial at 50° C., 8 weeks): 41.33%
Compound A (HPLC surface area %) ([3]; closed vial at 50° C., 1 day): 91.68%
Compound A (HPLC surface area %) ([3]; closed vial at 50° C., Initial): 97.95%
SMILES: C[C@H]1C=C(c2csc(SC3=C(C(=O)O)N4C(=O)[C@H]([C@@H](C)O)[C@H]4[C@H]3C)n2)CN1 [amorphous Compound A, (4R,5S,6S)-6-[(1R)-1-hydroxyethyl]-4-methyl-3-({4-[(5S)-5-methyl-2,5-dihydro-1H-pyrrol-3-yl]-1,3-thiazol-2-yl}thio)-7-oxo-1-azabicyclo[3.2.0]hept-2-ene-2-carboxylic acid]
